Experimental findings from US20240238239A1, “METHODS AND COMPOSITIONS FOR PO[…] CELL THERAPIES” (Ojai Energetics PBC, priority 2016, published 2024) are described below.

The assay concerns mice with spinal cord injuries. As to the kind of experiment: Neural stem cell treatment after spinal cord injury (BMS scores, rotarod treadmill tests). It is filed as in vivo, mouse. As to conditions: neural stem cells pre-treated with cannabidiol 1-50 μM for 10 days plus diet supplemented with microencapsulated hemp oil composition; combined treatment. Here is the method: Mouse neural stem cells expressing green fluorescent protein (GFP) under the control of a constitutive promoter are treated with either cannabidiol (1 μM, 5 μM, 10 μM or 50 μM) or vehicle control for 10 days. The cells are then transplanted directly into the spinal cords of mice with spinal cord injuries. Mice are maintained on a control diet or a diet supplemented with a microencapsulated hemp oil composition comprising cannabinoids, including cannabidiol, at concentrations similar to those used in the cell culture media. Mice are monitored daily for signs of spinal cord recovery evaluations of locomotor function based on Basso Mouse Scale (BMS) scores, a locomotor rating scale based on the frequency analyses of seven locomotor categories, and rotarod treadmill tests. Two months after the stem cell treatment the mice are sacrificed and the spinal cords are histologically examined.
(In the rotarod test animals must keep their balance on a rotating rod.)

As to `C=C(C)[C@@H]1CCC(C)=C[C@H]1c1c(O)cc(CCCCC)cc1O` [cannabidiol], the “spinal cord recovery (locomotor function)” value was “more rapid and more robust recovery”.
